Measurements as given in patent US9637490B2, “Antifungal 5,6-dihydro-4-[(difluoroethyl)phenyl]-4H-pyrrolo[1,2-α][1,4]benzodiazepine and 4-(difluoroethyl)phenyl-6H-pyrrolo[1,2-α][1,4]benzodiazepine derivatives” (Janssen Pharmaceutica NV, priority 2010, dated 2017).

Legend:
[1] = test system: Rhizopus oryzae IHEM5223; assay: Antifungal activity in vitro (resazurin susceptibility screen), Inf. J; type: cell-based; conditions: Rhizopus arrhizus, 37 °C, 24 hours, resa time 6 hours
Experimental: (§1) The standard susceptibility screen was performed in 96-well plates (U-bottom, Greiner Bio-One). Serial dilutions (2-fold or 4-fold) of 20 mM compound stock solutions were made in 100% DMSO, followed by an intermediate dilution step in water. These serial dilutions (10 μl) were then spotted onto test-plates that could be stored in the dark at 4° C. for a maximum period of 2 weeks. An adequate broad dose-range was included with 64 μM as the highest in-test concentration. The culture medium RPMI-1640 was supplemented with L-glutamine, 2% glucose and buffered with 3-(N-morpholino)-propanesulfonic acid (MOPS) at pH 7.0±0.1. The different fungal species/isolates (Table 3a) were cryopreserved and 1/1000 diluted in medium just prior to use. A standard inoculum of 200 μl containing 10^3 colony-forming unit (cfu) was then added to each well. A positive control (100% growth=fungal culture without antifungal) and a negative control (0% growth=RPMI-MOPS medium) were included on each plate. Optimal incubation time and temperature were dependent on the fungal species and vary from 24 h for yeasts (37° C.) to one week or more for dermatophytes (27° C.). Inhibition of fungal growth was measured after adding 10 μl of 0.005% (w/v) resazurin (Sigma Aldrich) to each well, based on the principle that living cells convert the non-fluorescent blue resazurin into the pink and fluorescent resorufin, allowing fluorimetric reading (λhd ex 550 nm and μem 590 nm) after an additional incubation period (‘resa’ time mentioned in Table 3a). [table]

[2] = test system: Mucor circinelloides IHEM21105; assay: Antifungal activity in vitro (resazurin susceptibility screen), Inf. L; type: cell-based; conditions: 27 °C, 48 hours, resa time 17 hours
Experimental: as §1

[3] = test system: Microsporum canis B68128; assay: Antifungal activity in vitro (resazurin susceptibility screen), Inf. B; type: cell-based; conditions: Microsporum canis, B68128, Microsporum canis B68128; 27 °C, 9 days, resa time 24 hours
Experimental: as §1

[4] = test system: Scedosporium prolificans IHEM21157; assay: Antifungal activity in vitro (resazurin susceptibility screen), Inf. I; type: cell-based; conditions: Lomentospora prolificans, 37 °C, 48 hours, resa time 17 hours
Experimental: as §1

[5] = test system: Candida parapsilosis B66126; assay: Antifungal activity in vitro (resazurin susceptibility screen), Inf. D; type: cell-based; conditions: Lodderomyces parapsilosis, B66126, Candida parapsilosis B66126; 37 °C, 24 hours, resa time 4 hours
Experimental: as §1

[6] = test system: Aspergillus fumigatus B42928; assay: Antifungal activity in vitro (resazurin susceptibility screen), Inf. E; type: cell-based; conditions: Aspergillus fumigatus, B42928, Aspergillus fumigatus B42928; 27 °C, 48 hours, resa time 17 hours
Experimental: as §1

[7] = test system: Sporothrix schenkii B62482; assay: Antifungal activity in vitro (resazurin susceptibility screen), Inf. A; type: cell-based; conditions: Sporothrix, B62482, Sporothrix schenkii B62482; 27 °C, 4 days, resa time 24 hours
Experimental: as §1

[8] = test system: Trichophyton mentagrophytes B70554; assay: Antifungal activity in vitro (resazurin susceptibility screen), Inf. G; type: cell-based; conditions: Trichophyton mentagrophytes, B70554, Trichophyton mentagrophytes B70554; 27 °C, 7 days, resa time 24 hours
Experimental: as §1

[9] = test system: Trichophyton rubrum B68183; assay: Antifungal activity in vitro (resazurin susceptibility screen), Inf. C; type: cell-based; conditions: Trichophyton rubrum, B68183, Trichophyton rubrum B68183; 27 °C, 7 days, resa time 24 hours
Experimental: as §1

[10] = test system: Cryptococcus neoformans B66663; assay: Antifungal activity in vitro (resazurin susceptibility screen), Inf. F; type: cell-based; conditions: Cryptococcus neoformans, B66663, Cryptococcus neoformans B66663; 37 °C, 24 hours, resa time 4 hours
Experimental: as §1

[11] = test system: Scedosporium apiospermum IHEM3817; assay: Antifungal activity in vitro (resazurin susceptibility screen), Inf. H; type: cell-based; conditions: Scedosporium apiospermum, IHEM3817, Scedosporium apiospermum IHEM3817; 37 °C, 48 hours, resa time 17 hours
Experimental: as §1

[12] = test system: Rhizomucor miehei IHEM13391; assay: Antifungal activity in vitro (resazurin susceptibility screen), Inf. K; type: cell-based; conditions: Rhizomucor miehei, IHEM13391, Rhizomucor miehei IHEM13391; 37 °C, 48 hours, resa time 17 hours
Experimental: as §1

Compound | IC50 [1] [nM] | IC50 [2] [nM] | IC50 [3] [nM] | IC50 [4] [nM] | IC50 [5] [nM] | IC50 [6] [nM] | IC50 [7] [nM] | IC50 [8] [nM] | IC50 [9] [nM] | melting point | IC50 [10] [nM] | IC50 [11] [nM] | IC50 [12] [nM]
CC(F)(F)c1cc(C2=NCc3c(Cl)cc(F)cc3-n3cccc32)ccc1F [Compound 26, 7-chloro-4-[3-(1,1-difluoroethyl)-4-fluorophenyl]-9-fluoro-6H-pyrrolo[1,2-a][1,4]-benzodiazepine] | > 64600 | > 64600 | 468 | 191 | 3800 | 589 | 10200 | 1200 | 468 | 84.9 to 85.9 °C | > 64600 | 158 | 13500
CC(F)(F)c1ccc(C2=NCc3cccc(Cl)c3-n3cccc32)cc1 [Compound 19, 10-chloro-4-[4-(1,1-difluoroethyl)phenyl]-6H-pyrrolo[1,2-a][1,4]benzodiazepine] | 9770 | > 64600 | 2040 | 513 | 13200 | 2040 | 2820 | 646 | 214 | 247.5 °C (dec.) | 1620 | 2340 | 14500
Cc1cc(Cl)cc2c1CN=C(c1ccc(C(C)(F)F)cc1)c1cccn1-2 [Compound 16, 9-chloro-4-[4-(1,1-difluoroethyl)phenyl]-7-methyl-6H-pyrrolo[1,2-a][1,4]-benzodiazepine] | > 64600 | > 64600 | 2000 | 1200 | 10700 | 1700 | 3800 | 1660 | 617 | 89.6 to 91.2 °C | 724 | 10200 | > 64600
CC(F)(F)c1cc(C2=NCc3c(Cl)cc(Cl)cc3-n3cccc32)ccc1F [Compound 25, 7,9-dichloro-4-[3-(1,1-difluoroethyl)-4-fluorophenyl]-6H-pyrrolo[1,2-a][1,4]-benzodiazepine] | > 64600 | > 64600 | 1580 | 501 | > 64600 | 1020 | 14100 | 2190 | 1260 | 124.2 to 125.4 °C | > 64600 | 407 | > 64600

Other lines, results leading:

IC50 [1] [nM] | IC50 [2] [nM] | IC50 [3] [nM] | IC50 [4] [nM] | IC50 [5] [nM] | IC50 [6] [nM] | IC50 [7] [nM] | IC50 [8] [nM] | IC50 [9] [nM] | melting point | IC50 [10] [nM] | IC50 [11] [nM] | IC50 [12] [nM] | Compound
> 64600 | > 64600 | 14100 | 2290 | 45700 | ≥ 64600 | 28200 | 26900 | 7410 | 139.3 to 141.2 °C | 16600 | 708 | 41700 | Cc1ccc(Cl)c2c1CN=C(c1ccc(C(C)(F)F)cc1)c1cccn1-2 [Compound 28, 10-chloro-4-[4-(1,1-difluoroethyl)phenyl]-7-methyl-6H-pyrrolo[1,2-a][1,4]-benzodiazepine]
> 64600 | > 64600 | 1950 | 10500 | 13500 | 1910 | 9330 | 2140 | 724 | 158.2 to 161.3 °C | 2630 | 646 | > 64600 | CC(F)(F)c1ccc(C2=NCc3c(F)cc(F)cc3-n3cccc32)cc1F [Compound 33, 4-[4-(1,1-difluoroethyl)-3-fluorophenyl]-7,9-difluoro-6H-pyrrolo[1,2-a][1,4]-benzodiazepine]
> 64600 | > 64600 | 468 | 4570 | 7760 | 501 | > 64600 | 363 | 162 | 170.8 to 171.5 °C | 1410 | 8910 | 12300 | CC(F)(F)c1ccc(C2=NCc3c(F)cccc3-n3cccc32)cc1F [Compound 30, 4-[4-(1,1-difluoroethyl)-3-fluorophenyl]-7-fluoro-6H-pyrrolo[1,2-a][1,4]benzodiazepine]
